No end group written: not given here.

Consider three substances from patent US5814610A, “Osteogenic growth oligopeptides and pharmaceutical compositions containing them” (Yissum Research Development Company of the Hebrew …, priority 1993, dated 1998).

One assay has as its system NIH 3T3 fibroblasts. As to the kind of experiment: Proliferative activity: fibroblastic NIH 3T3 cell number in vitro. The assay is classed as cell-based. The conditions noted are these: NIH 3T3 cells.
In assay [1] the test system is osteoblastic MC3T3E1 cells. As to the kind of experiment: Proliferative activity: osteoblastic MC3T3E1 cell number in vitro. The class given is cell-based. The conditions noted are these: for Proliferative effect on cell number (magnitude, compared with positive sOGP control): MC3T3E1 cells.
The conditions of assay [2]: Kharchenko et al.; cited from earlier work.

On to “Ac-MYGFGG [Ac-Met^0 [OGP(10-14)], Ac--Met--Tyr--Gly--Phe--Gly--Gly]”, for which the “Proliferative effect on cell number (magnitude, compared with positive sOGP control)” value (in the assay on NIH 3T3 fibroblasts; in assay [1]) was “closely similar to that of positive sOGP controls” throughout. Also, in assay [1] (MC3T3E1 cell number), the “Peptide concentration of peak proliferative activity” value is listed as 10^-13 M.

In the case of Gly--Gly [OGP(13-14)], the “Proliferative effect on cell number (magnitude, compared with positive sOGP control)” value (in the assay on NIH 3T3 fibroblasts; in assay [1]) was “did not affect” each time. Besides, the “Proliferative activity, Percent Activity of Full Length Peptide [OGP(1-14)], Mean” value in the assay on NIH 3T3 fibroblasts (mean of experiments) stood at 0%; in assay [1] (MC3T3 E1 cells, mean of experiments), 0%.

Turning to “Tyr--Gly--Phe--Gly--Gly (YGFGG; printed: Tyr--Gly--Phe--Gly--Gly) [OGP(10-14)]”, the “Analgesic and opioid activity” value in assay [2] was “analgesic and opiod activity”.
